One assay addresses T1, nNOS (Rattus norvegicus, UniProt P29476).
T1 construct: expressed in transfected cells; host or cells: HEK293 (stably transduced, G418 selection)
As to the kind of experiment: nNOS Dimerization Inhibition assay (Griess, Hek293 cells expressing rat nNOS). The class given is cell-based. The method, then:
(§1) nNOS Dimerization Inhibition assay. Hek293 cells stably transduced to express rat nNOS were grown to confuency in DMEM supplemented with 10% FBS, pen/strep and 0.4 mg/mL G418. Cells were then plated into 96 well plates at 50,000 cells per well. After 12 h of growth a serial dilution of test compound was added with a vehicle control leaving one additional lane empty as a second activator control. Compounds and cells were allowed to interact for 48 h to allow for full degradation of undrugged active dimeric species. After 48 h […] of a 10 mM calcium ionophore stock was added. After 4 h, 50 uL of the media from each well was removed and mixed with 50 uL Griess Reagent 1 (Promega Griess assay kit). This mixture was incubated for 5 mins and then 50 uL Reagent 2 was added. The plate was read at 530 nm and an IC50 calculated.

Another assay has as its target T2, eNOS (Bos taurus, UniProt P29473).
T2 construct: expressed in transfected cells; host or cells: HEK293 (stably transduced)
T2 sequence (P29473 1-1205): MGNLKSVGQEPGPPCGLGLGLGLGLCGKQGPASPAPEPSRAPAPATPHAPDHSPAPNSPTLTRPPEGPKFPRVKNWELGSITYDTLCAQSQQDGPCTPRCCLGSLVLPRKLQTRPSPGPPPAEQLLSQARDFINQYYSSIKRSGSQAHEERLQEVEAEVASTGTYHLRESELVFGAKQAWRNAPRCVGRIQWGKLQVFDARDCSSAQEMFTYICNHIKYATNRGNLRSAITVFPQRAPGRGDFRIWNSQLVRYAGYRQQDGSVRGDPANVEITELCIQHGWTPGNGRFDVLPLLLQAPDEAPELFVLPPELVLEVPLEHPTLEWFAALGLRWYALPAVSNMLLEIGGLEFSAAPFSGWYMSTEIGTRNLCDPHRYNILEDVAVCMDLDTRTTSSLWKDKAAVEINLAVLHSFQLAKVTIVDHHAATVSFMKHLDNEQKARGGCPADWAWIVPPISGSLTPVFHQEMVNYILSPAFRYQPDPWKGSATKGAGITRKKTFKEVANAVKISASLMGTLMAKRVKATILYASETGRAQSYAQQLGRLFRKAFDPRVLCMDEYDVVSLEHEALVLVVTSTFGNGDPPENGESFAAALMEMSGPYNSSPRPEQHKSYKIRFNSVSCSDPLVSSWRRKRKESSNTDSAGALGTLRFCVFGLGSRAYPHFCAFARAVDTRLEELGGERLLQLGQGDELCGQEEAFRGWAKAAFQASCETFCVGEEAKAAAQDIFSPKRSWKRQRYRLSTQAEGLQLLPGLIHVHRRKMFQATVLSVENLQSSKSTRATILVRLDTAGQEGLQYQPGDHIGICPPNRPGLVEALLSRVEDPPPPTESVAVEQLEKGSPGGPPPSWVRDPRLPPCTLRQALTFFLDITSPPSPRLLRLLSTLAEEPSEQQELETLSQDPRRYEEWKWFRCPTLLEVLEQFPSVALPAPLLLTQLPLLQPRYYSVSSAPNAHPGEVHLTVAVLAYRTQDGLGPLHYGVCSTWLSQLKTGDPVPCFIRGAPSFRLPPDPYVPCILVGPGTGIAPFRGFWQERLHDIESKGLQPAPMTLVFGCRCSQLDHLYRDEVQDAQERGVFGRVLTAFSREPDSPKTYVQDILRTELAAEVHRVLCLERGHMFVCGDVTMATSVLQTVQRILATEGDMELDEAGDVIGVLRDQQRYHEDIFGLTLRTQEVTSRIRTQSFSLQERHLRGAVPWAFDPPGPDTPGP
As to the kind of experiment: eNOS Dimerization Inhibition assay (Griess, Hek293 cells expressing bovine eNOS). It is filed as cell-based. The method, then:
as §1
eNOS Dimerization Inhibition assay. The nNOS protocol was followed substituting Hek293 cells stably transduced to express bovine eNOS

For another assay, the target named is T3, iNOS (Mus musculus, UniProt P29477).
T3 construct: endogenous in cells; host or cells: Raw 264.7 cells stimulated with E. coli LPS and IFN-gamma
T3 sequence (P29477 1-1144): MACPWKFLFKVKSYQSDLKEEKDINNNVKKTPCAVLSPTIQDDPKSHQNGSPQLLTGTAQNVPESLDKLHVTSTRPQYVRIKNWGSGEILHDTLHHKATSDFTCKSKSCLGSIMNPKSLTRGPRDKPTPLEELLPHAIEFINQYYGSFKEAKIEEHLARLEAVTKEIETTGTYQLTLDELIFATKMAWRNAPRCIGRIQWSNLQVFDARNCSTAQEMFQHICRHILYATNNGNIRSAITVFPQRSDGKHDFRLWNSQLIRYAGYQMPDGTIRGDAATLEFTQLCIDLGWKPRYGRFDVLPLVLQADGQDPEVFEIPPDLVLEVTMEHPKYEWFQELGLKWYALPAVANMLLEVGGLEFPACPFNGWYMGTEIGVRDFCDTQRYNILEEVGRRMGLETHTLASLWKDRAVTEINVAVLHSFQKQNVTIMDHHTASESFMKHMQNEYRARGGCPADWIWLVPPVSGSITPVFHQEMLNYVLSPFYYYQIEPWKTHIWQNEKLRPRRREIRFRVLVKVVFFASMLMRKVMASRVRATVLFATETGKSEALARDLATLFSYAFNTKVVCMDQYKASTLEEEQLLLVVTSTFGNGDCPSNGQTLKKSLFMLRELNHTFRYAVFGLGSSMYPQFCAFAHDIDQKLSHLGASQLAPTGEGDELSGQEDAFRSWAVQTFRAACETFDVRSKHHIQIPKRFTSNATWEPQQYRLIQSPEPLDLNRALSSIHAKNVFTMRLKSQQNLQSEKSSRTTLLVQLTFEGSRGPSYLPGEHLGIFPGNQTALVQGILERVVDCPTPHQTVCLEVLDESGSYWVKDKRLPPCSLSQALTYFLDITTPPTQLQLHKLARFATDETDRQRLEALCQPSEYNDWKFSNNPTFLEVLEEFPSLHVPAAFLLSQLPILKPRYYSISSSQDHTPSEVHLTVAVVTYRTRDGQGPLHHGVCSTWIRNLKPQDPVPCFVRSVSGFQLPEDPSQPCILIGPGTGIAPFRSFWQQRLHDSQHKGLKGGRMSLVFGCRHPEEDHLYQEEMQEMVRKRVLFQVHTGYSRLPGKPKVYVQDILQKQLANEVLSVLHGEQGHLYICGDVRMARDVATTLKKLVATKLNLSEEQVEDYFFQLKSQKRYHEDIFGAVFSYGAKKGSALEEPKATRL
As to the kind of experiment: iNOS Dimerization Inhibition assay (Griess, Raw 264.7 cells, LPS/IFN-γ). It is filed as cell-based, murine. The method, then:
iNOS Dimerization Inhibition assay. Raw 264.7 cells were grown to confuency in DMEM supplemented with 10% FBS and pen/strep. Cells were then plated into 96 well plates at 50,000 cells per well. After 12h of growth a serial dilution of test compound was added along with e.coli LPS (50 ug/ml final) and IFN-Y (500 ng/ml final) with a vehicle control. Compounds and cells were allowed to interact for 48 h to allow for full degradation of undrugged active dimeric species. After 48 h, 50 uL of the media from each well was removed and mixed with 50 uL Griess Reagent 1 (Promega Griess assay kit). This mixture was incubated for 5 mins and then 50 uL Reagent 2 was added. The plate was read at 530 nm and an IC50 calculated.

T1 sequence (P29476 whole entry): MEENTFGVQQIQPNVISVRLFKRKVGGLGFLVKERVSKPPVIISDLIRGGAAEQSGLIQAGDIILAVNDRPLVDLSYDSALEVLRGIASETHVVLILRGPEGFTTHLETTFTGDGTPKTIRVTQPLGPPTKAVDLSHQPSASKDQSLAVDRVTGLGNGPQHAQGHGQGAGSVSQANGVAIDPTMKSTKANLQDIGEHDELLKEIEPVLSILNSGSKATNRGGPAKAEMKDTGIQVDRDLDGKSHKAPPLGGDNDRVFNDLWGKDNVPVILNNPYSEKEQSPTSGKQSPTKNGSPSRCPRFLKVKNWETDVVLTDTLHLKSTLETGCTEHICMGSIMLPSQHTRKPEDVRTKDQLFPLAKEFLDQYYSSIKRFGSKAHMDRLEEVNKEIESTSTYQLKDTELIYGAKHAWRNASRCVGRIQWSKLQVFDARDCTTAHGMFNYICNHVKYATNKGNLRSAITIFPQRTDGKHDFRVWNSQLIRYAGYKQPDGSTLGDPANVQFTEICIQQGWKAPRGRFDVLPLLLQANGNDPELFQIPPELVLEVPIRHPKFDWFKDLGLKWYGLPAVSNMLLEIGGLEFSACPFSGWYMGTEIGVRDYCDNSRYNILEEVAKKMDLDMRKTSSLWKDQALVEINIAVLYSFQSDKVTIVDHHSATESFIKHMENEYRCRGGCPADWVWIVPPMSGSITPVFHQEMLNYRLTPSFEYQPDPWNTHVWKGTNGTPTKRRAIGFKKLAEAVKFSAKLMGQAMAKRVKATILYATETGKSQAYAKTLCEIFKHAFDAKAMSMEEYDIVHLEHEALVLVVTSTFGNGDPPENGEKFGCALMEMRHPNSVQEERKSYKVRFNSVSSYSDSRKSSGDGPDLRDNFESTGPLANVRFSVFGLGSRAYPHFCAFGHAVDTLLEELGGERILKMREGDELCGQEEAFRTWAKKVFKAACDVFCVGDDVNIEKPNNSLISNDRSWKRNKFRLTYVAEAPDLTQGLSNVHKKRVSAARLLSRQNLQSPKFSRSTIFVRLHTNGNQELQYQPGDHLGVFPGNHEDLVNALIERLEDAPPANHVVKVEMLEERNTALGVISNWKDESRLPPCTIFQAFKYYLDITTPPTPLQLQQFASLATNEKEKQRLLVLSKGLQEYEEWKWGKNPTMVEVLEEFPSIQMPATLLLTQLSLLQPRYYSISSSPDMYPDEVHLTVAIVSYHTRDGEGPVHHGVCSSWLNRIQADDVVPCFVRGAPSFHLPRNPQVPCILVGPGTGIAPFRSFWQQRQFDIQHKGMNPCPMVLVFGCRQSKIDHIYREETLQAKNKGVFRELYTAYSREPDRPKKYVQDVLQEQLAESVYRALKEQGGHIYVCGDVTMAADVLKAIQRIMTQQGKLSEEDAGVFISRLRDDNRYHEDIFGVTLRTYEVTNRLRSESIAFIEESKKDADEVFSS

Consider “(R)-2-[2-(1H-imidazol-1-yl)-4-pyrimidylpyrrolidin-2-yl]-N-(4-methoxy-3-n-propylbenzyl)acetamide [Compound 4]”, for which the results for the IC50 on nNOS, at eNOS and against iNOS were 7.4 µM, 86 µM and 4.5 µM, respectively.

Regarding “(R)-2-[2-(1H-imidazol-1-yl)-4-pyrimidylpyrrolidin-2-yl]-N-(3-benzyl-4-methoxybenzyl)acetamide [Compound 5]”, the IC50 came to 14.1 µM on nNOS, 55 µM at eNOS and 6 µM on iNOS.

With `O=C(C[C@H]1CCCN1c1ccnc(-n2ccnc2)n1)NCc1ccc2c(c1)OCO2` [Compound 1, (R)-2-[2-(1H-imidazol-1-yl)-4-pyrimidylpyrrolidin-2-yl)-N-(benzo[d][1,3]dioxo-5-ylmethyl)acetamide], the IC50 at nNOS came out at 0.2 µM; at eNOS, 18 µM; at iNOS, 0.1 µM.

Regarding `CCOc1cc(CNC(=O)C[C@H]2CCCN2c2ccnc(-n3ccnc3)n2)ccc1OC` [Compound 3, (R)-2-[2-(1H-imidazol-1-yl)-4-pyrimidylpyrrolidin-2-yl]-N-(3-ethoxy-4-methoxybenzy)acetamide], the 50% inhibitory concentration (IC50) against nNOS amounted to 6.7 µM; on eNOS it was 57 µM; at iNOS it was 3.7 µM.

On to `COc1ccc(CNC(=O)C[C@H]2CCCN2c2ccnc(-n3ccnc3)n2)cc1OC` [Compound 2, (R)-2-[2-(1H-imidazol-1-yl)-4-pyrimidylpyrrolidin-2-yl]-N-(3,4-dimethoxybenzyl) acetamide], for which the IC50 came to 0.14 µM against nNOS, 21.1 µM against eNOS and 0.62 µM against iNOS.

The values above are taken from patent US20200377481A1, “SUBSTITUTED 4-(1-PYRROLIDINYL)PYRIMIDINE COMPOUNDS AS DIMERIZATION INHIBITORS OF NEURONAL NITRIC OXIDE SYNTHASE” (Northwestern University, priority 2016, published 2020).
